# Laboratory results: patent publication US11066414B2, “Cot modulators and methods of use thereof” (Gilead Sciences, Inc., priority 2015, dated 2021)
# Where two headings read alike, the source gives them in different places.
# Assays:
# TNFα = experiment: Cot Monocyte TNFα Cell Based Assay
# Human Cot = Human Cot (Homo sapiens (Human), UniProt P41279); experiment: High Throughput Cot Biochemical Assay; settings: Cot HTRF (TR-FRET KinEASE) biochemical assay, 400 μM ATP
# [1] = Homo sapiens, Monocyte, read-out: EC50 TNF, LPS-stimulated human monocytes, TNFα TR-FRET
# [2] = read-out: EC50 TNF, LPS-stimulated human monocytes, TNFα TR-FRET
# Human Cot, sequence (P41279 30-397): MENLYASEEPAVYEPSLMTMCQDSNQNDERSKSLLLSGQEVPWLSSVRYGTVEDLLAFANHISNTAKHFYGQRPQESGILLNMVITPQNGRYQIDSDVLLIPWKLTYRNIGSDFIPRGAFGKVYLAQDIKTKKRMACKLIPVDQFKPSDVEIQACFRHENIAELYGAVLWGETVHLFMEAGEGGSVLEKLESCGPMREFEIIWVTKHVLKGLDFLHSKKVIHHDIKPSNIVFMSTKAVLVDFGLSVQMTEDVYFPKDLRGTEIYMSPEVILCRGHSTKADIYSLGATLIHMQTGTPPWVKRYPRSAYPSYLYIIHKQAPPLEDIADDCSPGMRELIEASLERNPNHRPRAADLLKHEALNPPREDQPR
Compound,EC50 (TNFα; [1]),IC50 (Human Cot; IC50 HTRF),EC50 (TNFα; [2]),IC50 (Human Cot; read-out: IC50 HTRF)
"CC(C)(C)CNc1c(C#N)cnc2c(C#N)cc(N[C@H](c3cn(C4CC4)nn3)c3csc4cnccc34)cc12 [Example 856, (S)-6-(((1-cyclopropyl-1H-1,2,3-triazol-4-yl)(thieno[2,3-c]pyridin-3-yl)methyl)amino)-4-(neopentylamino)quinoline-3,8-dicarbonitrile]",0.029 µM,0.001 µM,,
"Cc1nc(F)ccc1[C@H](Nc1cc(C#N)c2ncc(C#N)c(NCC(C)(C)C)c2c1)c1nnn(C2CC2)c1C1CC1 [Example 857, (S)-6-(((l,5-dicyclopropyl-1H-1,2,3-triazol-4-yl)(6-fluoro-2-methylpyridin-3-yl)methyl)amino)-4-(neopentylamino)quinoline-3,8-dicarbonitrile]",,,0.18 µM,0.004 µM
"Cc1nc(F)ccc1[C@H](Nc1cc(C#N)c2ncc(C#N)c(NCC(C)(C)C(F)(F)F)c2c1)c1nnn([C@@H](C)CF)c1F [Example 858, 6-(((S)-(5-fluoro-1-((S)-1-fluoropropan-2-yl)-1H-1,2,3-triazol-4-yl)(6-fluoro-2-methylpyridin-3-yl)methyl)amino)-4-((3,3,3-trifluoro-2,2-dimethylpropyl)amino)quinoline-3,8-dicarbonitrile]",0.044 µM,0.007 µM,,
"Cc1nc(F)ccc1[C@H](Nc1cc(C#N)c2ncc(C#N)c(NCC(C)(C)C)c2c1)c1cn(C2(C(C)(C)C)CC2)nn1 [Example 860, (S)-6-(((1-(1-(tert-butyl)cyclopropyl)-1H-1,2,3-triazol-4-yl)(6-fluoro-2-methylpyridin-3-yl)methyl)amino)-4-(neopentylamino)quinoline-3,8-dicarbonitrile]",0.031 µM,0.003 µM,,
"Cc1nc(F)ccc1[C@H](Nc1cc(C#N)c2ncc(C#N)c(NCC(C)(C)C(F)(F)F)c2c1)c1nnn(C23CC(C2)C3)c1F [Example 861, (S)-6-(((1-(bicyclo[1.1.1]pentan-1-yl)-5-fluoro-1H-1,2,3-triazol-4-yl)(6-fluoro-2-methylpyridin-3-yl)methyl)amino)-4-((3,3,3-trifluoro-2,2-dimethylpropyl)amino)quinoline-3,8-dicarbonitrile]",0.04 µM,0.007 µM,,
"Cc1nc(F)ccc1[C@H](Nc1cc(C#N)c2ncc(C#N)c(NCC(C)(C)C(F)(F)F)c2c1)c1nnn(C2(C)CC2)c1F [Example 863, (S)-6-(((5-fluoro-1-(1-methylcyclopropyl)-1H-1,2,3-triazol-4-yl)(6-fluoro-2-methylpyridin-3-yl)methyl)amino)-4-((3,3,3-trifluoro-2,2-dimethylpropyl)amino)-quinoline-3,8-dicarbonitrile]",0.035 µM,0.002 µM,,
"Cc1nc(F)ccc1[C@H](Nc1cc(C#N)c2ncc(C#N)c(NCC(C)(C)C)c2c1)c1cn(CC2(C)CC2)nn1 [Example 866, (S)-6-(((6-fluoro-2-methylpyridin-3-yl)(1-((1-methylcyclopropyl)methyl)-1H-1,2,3-triazol-4-yl)methyl)amino)-4-(neopentylamino)quinoline-3,8-dicarbonitrile]",0.018 µM,0.002 µM,,
"Cc1nc(F)ccc1[C@H](Nc1cc(C#N)c2ncc(C#N)c(NCC(C)(C)C(F)(F)F)c2c1)c1cn(C2(C3CC3)CC2)nn1 [Example 867, (S)-6-(((4-(1-(1,1-bi(cyclopropan)]-1-yl)-1H-1,2,3-triazol-4-yl)(6-fluoro-2-methylpyridin-3-yl)methyl)amino)-4-((3,3,3-trifluoro-2,2-dimethylpropyl)amino)quinoline-3,8-dicarbonitrile]",,,0.027 µM,0.003 µM
"COc1c([C@@H](Nc2cc(C#N)c3ncc(C#N)c(NCC(C)(C)C)c3c2)c2ccc(F)nc2C)nnn1C12CC(C1)C2 [Example 868, (S)-6-(((1-(bicyclo[1.1,1]pentan-1-yl)-5-methoxy-1H-1,2,3-triazol-4-yl)(6-fluoro-2-methylpyridin-3-yl)methyl)amino)-4-(neopentylamino)quinoline-3,8-dicarbonitrile]",0.07 µM,0.002 µM,,
"CC(C)(C)CNc1c(C#N)cnc2c(C#N)cc(N[C@H](c3cn(C4(C(F)F)CC4)nn3)c3cccc4c(=O)n(CC(F)F)ccc34)cc12 [Example 870, (S)-6-(((2-(2,2-difluoroethyl)-1-oxo-1,2-dihydroisoquinolin-5-yl)(1-(1-(difluoromethyl)cyclopropyl)-1H-1,2,3-triazol-4-yl)methyl)amino)-4-(neopentylamino)quinoline-3,8-dicarbonitrile]",0.169 µM,0.002 µM,,
Cn1ccc2c([C@H](Nc3cc(C#N)c4ncc(C#N)c(NCC(C)(C)C)c4c3)c3cn(C4(C(F)F)CC4)nn3)cccc2c1=O [Example 871],,,0.032 µM,0.001 µM
"Cc1nc(F)ccc1[C@H](Nc1cc(C#N)c2ncc(C#N)c(NCC(C)(C)C)c2c1)c1cn(C2CC23CC3)nn1 (stereo partly drawn) [Example 872, 6-(((1S)-(6-fluoro-2-methylpyridin-3-yl)(1-(spiro[2.2]pentan-1-yl)-1H-1,2,3-triazol-4-yl)methyl)amino)-4-(neopentylamino)quinoline-3,8-dicarbonitrile]",0.015 µM,0.001 µM,,
"CC(C)(C)CNc1c(C#N)cnc2c(C#N)cc(N[C@H](c3cn(C4(C(F)(F)F)CC4)nn3)c3cccc4c(=O)n(CC(F)F)ccc34)cc12 [Example 874, (S)-6-(((2-(2,2-difluoroethyl)-1-oxo-1,2-dihydroisoquinolin-5-yl)(1-(1-(trifluoromethyl)cyclopropyl)-1H-1,2,3-triazol-4-yl)methyl)amino)-4-(neopentylamino)quinoline-3,8-dicarbonitrile]",0.073 µM,0.003 µM,,

# Next, values leading:
EC50 (TNFα; [1]),IC50 (Human Cot; IC50 HTRF),EC50 (TNFα; [2]),IC50 (Human Cot; read-out: IC50 HTRF),Compound
0.166 µM,0.002 µM,,,"CC(C)(C)CNc1c(C#N)cnc2c(C#N)cc(N[C@H](c3cn(C4(C(F)(F)F)CC4)nn3)c3cccc4c(=O)n(CC(F)(F)F)ccc34)cc12 [Example 875, (S)-4-(neopentylamino)-6-(((1-oxo-2-(2,2,2-trifluoroethyl)-1,2-dihydroisoquinolin-5-yl)(1-(1-(trifluoromethyl)cyclopropyl)-1H-1,2,3-triazol-4-yl)methyl)amino)quinoline-3,8-dicarbonitrile]"
0.385 µM,0.002 µM,,,"CC(C)(C)CNc1c(C#N)cnc2c(C#N)cc(N[C@H](c3cn(C4(C(F)F)CC4)nn3)c3cccc4c(=O)[nH]ccc34)cc12 [Example 876, (S)-6-(((1-(1-(difluoromethyl)cyclopropyl)-1H-1,2,3-triazol-4-yl)(1-oxo-1,2-dihydroisoquinolin-5-yl)methyl)amino)-4-(neopentylamino)quinoline-3,8-dicarbonitrile]"
0.034 µM,0.002 µM,,,"C[C@@H](CF)n1cc([C@@H](Nc2cc(C#N)c3ncc(C#N)c(NCC(C)(C)C)c3c2)c2cccc3c(=O)n(C)ccc23)nn1 [Example 877, 6-(((S)-(1-((S)-1-fluoropropan-2-yl)-1H-1,2,3-triazol-4-yl)(2-methyl-1-oxo-1,2-dihydroisoquinolin-5-yl)methyl)amino)-4-(neopentylamino)quinoline-3,8-dicarbonitrile]"
0.031 µM,0.002 µM,,,"Cn1ccc2c([C@H](Nc3cc(C#N)c4ncc(C#N)c(NCC(C)(C)C)c4c3)c3cn(C4(CF)CC4)nn3)cccc2c1=O [Example 878, (S)-6-(((1-(1-(fluoromethyl)cyclopropyl)-1H-1,2,3-triazol-4-yl)(2-methyl-1-oxo-1,2-dihydroisoquinolin-5-yl)methyl)amino)-4-(neopentylamino)quinoline-3,8-dicarbonitrile]"
0.013 µM,0.001 µM,,,"Cn1ccc2c([C@H](Nc3cc(C#N)c4ncc(C#N)c(NCC(C)(C)C)c4c3)c3cn(C4(C)CC4)nn3)cccc2c1=O [Example 879, (S)-6-(((2-methyl-1-oxo-1,2-dihydroisoquinolin-5-yl)(1-(1-methylcyclopropyl)-1H-1,2,3-triazol-4-yl)methyl)amino)-4-(neopentylamino)quinoline-3,8-dicarbonitrile]"
,,0.08 µM,0.003 µM,"Cn1ccc2c([C@H](Nc3cc(C#N)c4ncc(C#N)c(NCC(C)(C)C)c4c3)c3cn(C(CF)CF)nn3)cccc2c1=O [Example 880, (S)-6-(((1-(l,3-difluoropropan-2-yl)-1H-1,2,3-triazol-4-yl)(2-methyl-1-oxo-1,2-dihydroisoquinolin-5-yl)methyl)amino)-4-(neopentylamino)quinoline-3,8-dicarbonitrile]"
,,0.013 µM,0.002 µM,"Cn1ccc2c([C@H](Nc3cc(C#N)c4ncc(C#N)c(NCC(C)(C)C)c4c3)c3cn(C4(C5CC5)CC4)nn3)cccc2c1=O [Example 881, (S)-6-(((4-(1-(1-bi(cyclopropan)]-1-yl)-1H-1,2,3-triazol-4-yl)(2-methyl-1-oxo-1,2-dihydroisoquinolin-5-yl)methyl)amino)-4-(neopentylamino)quinoline-3,8-dicarbonitrile]"
0.018 µM,0.002 µM,,,"Cn1ccc2c([C@H](Nc3cc(C#N)c4ncc(C#N)c(NCC(C)(C)C(F)(F)F)c4c3)c3cn(C4(C5CC5)CC4)nn3)cccc2c1=O [Example 882, (S)-6-(((1-([1,1′-bi(cyclopropan)]-1-yl)-1H-1,2,3-triazol-4-yl)(2-methyl-1-oxo-1,2-dihydroisoquinolin-5-yl)methyl)amino)-4-((3,3,3-trifluoro-2,2-dimethylpropyl)amino)quinoline-3,8-dicarbonitrile]"
0.013 µM,0.001 µM,,,"Cn1ccc2c([C@H](Nc3cc(C#N)c4ncc(C#N)c(NCC(C)(C)C(F)(F)F)c4c3)c3cn(C45CC(C4)C5)nn3)cccc2c1=O [Example 883, (S)-6-(((1-(bicyclo[1.1.1]pentan-1-yl)-1H-1,2,3-triazol-4-yl)(2-methyl-1-oxo-1,2-dihydroisoquinolin-5-yl)methyl)amino)-4-((3,3,3-trifluoro-2,2-dimethylpropyl)amino)quinoline-3,8-dicarbonitrile]"
